The values below come from US20080182277A1, “Assays and methods using biomarkers” (Genentech, Inc., priority 2005, published 2008).

One test deals with Colo320 tumor xenografts. In words: Tumor xenograft study, Colo320. The format is in vivo, mice. As to conditions: Fut-6-negative Colo320; 60 mg/kg/day i.p. on days 0-4. On the procedure:
(§1) FIG. 10A-D illustrates differential expression of specific O-glycosylation enzymes in Apo2L/TRAIL-sensitive and -resistant cancer cell lines: (A) Cell viability was measured after incubation with varying doses of Apo2L/TRAIL. IC50 for each cell line was computed as the concentration of Apo2L/TRAIL that gives 50% loss of viability. Each cell viability experiment was repeated at least three times in presence of low (0.5%) and high (10%) fetal bovine serum. Black, grey, or open symbols depict cell lines that are highly sensitive, moderately sensitive, or resistant to Apo2L/TRAIL, respectively. (B) ppGalNAcT-14 mRNA expression levels (probe set 219271 at) in pancreatic and malignant melanoma cell lines. Cell lines are arranged by tissue type and sensitivity to Apo2L/TRAIL. […] Athymic nude mice carrying GalNAcT-3/Fut-6-positive (left panel) or GalNAcT-3/Fut-6-negative (right panel) tumors received vehicle or Apo2L/TRAIL (60 mg/kg/day i.p. on days 0-4) and tumor volume was monitored (mean ±SE, N=10 mice/group).
(§2) Monosaccharide composition of CHO-cell-derived DR5 was obtained after hydrolysis with 4 N TFA. […] Tumor measurements were collected by a digital caliper and tumor volumes calculated using the formula […] (A=length) (B=width)^2. […]

A further test has as its system RKO tumor xenografts. Nature of the test: Tumor xenograft study, RKO. It counts as in vivo, mice. As to conditions: Fut-6-negative RKO; 60 mg/kg/day i.p. on days 0-4. On the procedure:
as §1, §2

For the next test, the system named is Colo205 tumor xenografts. Nature of the test: Tumor xenograft study, Colo205. As to conditions: Fut-6-positive Colo205; 60 mg/kg/day i.p. on days 0-4. The format is in vivo, mice. On the procedure:
as §1, §2

A further test relates to PSN-1 cells. In words: Immunoblot analysis of the Apo2L/TRAIL-induced caspase cascade, PSN-1. Conditions: siRNA 48 h, Apo2L/TRAIL 4 or 8 h. The format is cell-based, human. Here is the method:
FIG. 12 illustrates (A) Analysis of the caspase cascade induced by Apo2L/TRAIL. PSN-1 and DLD-1 cells were transfected with siRNAs against ppGalNAcT-14 or Fut-6, respectively, for 48 h. The cells were treated with Apo2L/TRAIL for 4 or 8 h, and cell lysates were analyzed by immunoblot with antibodies specific for caspase-8, Bid, caspase-9, caspase-3, or actin as a loading control. (B) PSN-1 cells were transfected with ppGalNAcT-14 siRNA as in A, treated with Apo2L/TRAIL for 4 h, and caspase-3/7 enzymatic activity in cell lysates was determined. (C) Analysis of the Apo2L/TRAIL DISC. PSN-1 cells were transfected with ppGalNAcT-14 siRNA as in A. FLAG-Apo2L/TRAIL ([…]) was added for 0-60 min, the cells were lysed, and subjected to an immunoprecipitation with an anti-FLAG antibody. DISC-associated FADD, caspase-8, DR4, and were detected by immunoblot. (D) PSN-1 cells were transfected, treated, and subjected to DISC immunoprecipitation as in C, and DISC-associated caspase-8 enzymatic activity was measured as previously described (Sharp et al., J. Biol. Chem., 280:19401 (2005).
siRNAs were purchased as double stranded RNA oligonucleotides and transfected into the respective cell lines at a final concentration of 25 nM for each siRNA. siRNA duplexes against a non-targeting sequence (Dharmacon) was used as a control. […]

For the substance “Apo2L/TRAIL: nontagged soluble recombinant human Apo2L/TRAIL, prepared as described in Lawrence et al.”, the “effect on growth of established tumor xenografts” value in the test on Colo320 tumor xenografts was “did not respond”; in the test with RKO tumor xenografts it was “did not respond”; in the test on Colo205 tumor xenografts, “tumor regression followed by a greatly delayed tumor progression”. Besides, the “Apo2L/TRAIL-induced caspase processing (caspase-8, Bid, caspase-9, caspase-3)” value with PSN-1 cells is recorded as “essentially complete processing of caspase-8”.
